One series relates to mouse hepatocytes. The experiment in a line: Hepatocyte metabolic stability, mouse. Type of series: in vitro ADME. The procedure: (§1) Biological Example 6: Rat hepatocyte half life Certain Example compounds and Comparator Compound 1 were tested for metabolic stability in a metabolic assay using mouse- and rat-derived hepatocytes. Compounds having good metabolic stability in the assay are expected to be especially useful as agents for preventing and/or treating cancer, by having a long half-life in human patients.
(§2) Frozen pooled rat and mouse hepatocytes obtained from LifeTechnologies were thawed and purified according to the manufacturer's instructions. The test compound (4 mM) in DMSO was diluted with acetonitrile to provide a 100 μM sub-stock then further diluted with pH 7.4 Krebs-Henseleit buffer (supplemented with CaCl2, NaHCO3, HEPES, fructose and glycine) to provide a 2 μM working solution. 25 μL of working solution was incubated at 37° C., treated with 25 μL of rat or mouse hepatocyte suspension (containing 1×10^6 cells/mL) and incubated at 37° C. with 5% CO2 level at 95% relative humidity. Wells were incubated for an appropriate time (0, 15, 30, 45, 60 and 75 min) then quenched with 250 μL of acetonitrile containing reference standards diltiazem, 7-ethoxycoumarin and propranolol). The plates were shaken, sonicated for 5 min then cooled to 4° C. until all sampling was complete. All plates were centrifuged at 4000 rpm for 20 min to pellet the debris. 110 μL supernatant was diluted 110 μL water and quantitated using LC-MS/MS.
(§3) A linear regression curve was fitted to a plot of natural logarithm (In) of AUC against time. The T-half (min)=0.693/slope

Series [1] has as its system CA46 (human B cell lymphoma). The experiment in a line: Cell cytotoxicity CellTiter-Glo, CA46. Type of series: cell-based. Here is the method: (§4) Cells were seeded in 96-well microplates and treated with compounds or cisplatin (as a positive control) at 9 increasing concentrations in technical triplicate. […] On day 1, 90 μL of various cell suspensions with the number of cells ranging from 5000-8000 cells/well were seeded into wells of a 96-well plate (Corning). The number of cells to be seeded was previously determined. • 2. All 96-wells plates with cells were placed in an incubator overnight at 37° C. with 5% CO2. • 3. On day 2, cells were observed under a microscope ensuring the cells treated with vehicle control were in good condition. • 4. A dilution series of the test compounds and cisplatin were prepared at 10× the final concentrations required. 10 μL/well of 10× compound solution was added to the corresponding plates. The final volume was 100 μL/well for all the plates. Final DMSO concentration was 0.1%. • 5. On day 5 (after 72 hours of incubation), 50 μL of CTG reagent was added to each well. • 6. Contents were mixed for 5 minutes on an orbital shaker to facilitate cell lysis. • 7. The plate was allowed to incubate at room temperature for 10 minutes to stabilize luminescent signals. […]
Background: Cellular ATP, detected with luciferase, serves as a proxy for viable cell number.

The test system of series [2] is DU4475 (human breast carcinoma). Briefly: Cell cytotoxicity CellTiter-Glo, DU4475. The class given is cell-based. Conditions: DU-4475. The procedure:
as §4

The subject of series [3] is MX-1 (human breast carcinoma). Briefly: Cell cytotoxicity CellTiter-Glo, MX-1. Type of series: cell-based. The conditions noted are these: MX1. The procedure: as §4
The subject of series [4] is SU-DHL-10 cell line (human B cell lymphoma). Briefly: Cell cytotoxicity in SU-DHL-10 cell line (CellTiter-Glo). The conditions noted are these: 72 h treatment, CTG. Type of series: cell-based. A digest of the protocol: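 Cells seeded at 5000-8000/well, dosed next day with 9 concentrations in triplicate (DMSO 0.1% final) and incubated 72 h at 37° C, 5% CO2. Viability by CellTiter-Glo luminescence normalised to vehicle (100%) and medium blank; IC50 from sigmoidal nonlinear regression.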

The nature of series [5]: Caco-2 cell permeability assay. The class given is in vitro ADME. The conditions noted are these: human, Caco-2, pH 7.4, basal to apical Papp, pH 7.4, 2.5 h. A digest of the protocol: (§5)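 Caco-2 monolayers grown 10 days were dosed at 2 μM (1% DMSO) on the donor side in HBSS/10 mM HEPES pH 7.4, for both AB and BA directions, then incubated 2.5 h at 37 °C without shaking. Donor and acceptor samples were quantified by LC-MS/MS to give Papp. Wells that failed a Lucifer Yellow integrity check (>1% passage) were excluded.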

Another series concerns Caco-2 cells. Briefly: Caco-2 cell permeability assay. Type of series: in vitro ADME. The conditions noted are these: apical to basal Papp, 2 μM, pH 7.4, 2.5 h. An outline of the steps: as §5
Series [6] concerns RKO (human colon carcinoma). Briefly: Cell cytotoxicity CellTiter-Glo, RKO. Type of series: cell-based. The procedure: as §4
Series [7] relates to HT1080 (human fibrosarcoma). Briefly: Cell cytotoxicity CellTiter-Glo, HT1080. Type of series: cell-based. Conditions: HT-1080. The procedure: as §4
The subject of series [8] is NCI-H1703 (human lung squamous cell carcinoma). The experiment in a line: Cell cytotoxicity CellTiter-Glo, NCI-H1703. Type of series: cell-based. The procedure:
as §4

Another series relates to rat hepatocytes. Briefly: Hepatocyte metabolic stability, rat. The class given is in vitro ADME. Here is the method:
as §1, §2, §3

Structures are written as SMILES.

Usually IC50 stands for the concentration that gives 50% inhibition. A lower IC50 goes with inhibition by little substance. As a reminder, the Papp B→A is the apparent permeability from the basolateral to the apical side of a cell layer. With `CNCc1cnc2ccc(-c3ccc(F)c(F)c3OCCc3c(C(O)C(C)(C)C)nn(C)c3C)cn12` (single isomer, unassigned) [Example 14, 1-(4-(2-(2,3-difluoro-6-(3-((methylamino)methyl)imidazo[1,2-a]pyridin-6-yl)phenoxy)ethyl)-1,5-dimethyl-1H-pyrazol-3-yl)-2,2-dimethylpropan-1-ol], the “mHeps t^1/2” value in the series with mouse hepatocytes amounted to 26.73 min. Moreover, the IC50 came out at 2 nM in series [1]; 20 nM in [2]; 1.4 nM in series [3]; 0.4 nM in series [4]; 2 nM in [6]; 1 nM in series [7]. The compound further registered an IC50 in series [8] of 4 nM. Also, the Papp B→A at 2.5 h, 2 μM in series [5] is 5.14 ×10⁻⁶ cm/s. For the same compound, the “Caco-2 A-B” value with Caco-2 cells is 0.215 ×10⁻⁶ cm/s. Besides, the “rHeps t^1/2” value in the series on rat hepatocytes is reported as 18 min.

Source of the values: patent US12599676B2, “Cytotoxic imidazo[1,2-A]pyridine compounds and their use in therapy” (MyricX Pharma Limited, priority 2022, dated 2026).
